Results published in patent US12466849B2, “Anti-viral and anti-tumoral compounds” (YEDA RESEARCH AND DEVELOPMENT CO. LTD, priority 2020, dated 2025).
Values after ≈ are worked out from the molar mass of the structure shown. Read-outs that look alike come from different tables or passages of the source.

Tests used:
[1] = test system: HCMV AD169; experiment: HCMV plaque reduction assay, MRC-5 cells, strain AD169; assay type: cell-based, Human cytomegalovirus; conditions: Human betaherpesvirus 5, 144 h; hCMV AD169, MRC5 cells, plaque assay, 6-days duration
[2] = test system: adenovirus-5 (Ad5); conditions: Ad5; SI = CC50/EC50
[3] = test system: TCRV; conditions: TCRV; SI = CC50/EC50
[4] = test system: Rift Valley fever virus (RVFV); conditions: RVFV; SI = CC50/EC50
[5] = test system: SARS-CoV; conditions: SARS-CoV; SI = CC50/EC50
[6] = test system: SARS-CoV-2; conditions: SARS-CoV-2; SI = CC50/EC50
[7] = test system: dengue virus-2 (DV-2); conditions: DV-2; SI = CC50/EC50
[8] = test system: Japanese encephalitis virus (JEV); conditions: JEV; SI = CC50/EC50
[9] = test system: Powassan virus (POWV); conditions: POWV; SI = CC50/EC50
[10] = test system: West Nile virus (WNV); conditions: WNV; SI = CC50/EC50
[11] = test system: Yellow fever virus (YFV); conditions: YFV; SI = CC50/EC50
[12] = test system: Venezuelan equine encephalitis virus (VEEV); conditions: VEEV; SI = CC50/EC50
[13] = test system: Zika virus; conditions: Zika; SI = CC50/EC50
[14] = test system: influenza A(H1N1)
[15] = test system: influenza A(H5N1)
[16] = test system: Influenza B
[17] = test system: RSV; conditions: RSV; SI = CC50/EC50
[18] = test system: poliovirus-1 (POV-1); conditions: for SI: POV-1, SI = CC50/EC50
[19] = test system: enterovirus-68 (EV-68); conditions: EV-68; SI = CC50/EC50
[20] = human
[21] = rat, 1 µM
[22] = in vitro; conditions: African green monkey
[23] = in vitro; conditions: African green monkey; remark: listed apart in the source
[24] = in vitro; conditions: African green monkey; remark: listed apart in the source
[25] = in vitro; conditions: African green monkey; remark: listed apart in the source
[26] = in vitro; conditions: Syrian hamster
[27] = in vitro; conditions: African green monkey; remark: listed apart in the source
[28] = in vitro; conditions: African green monkey; remark: listed apart in the source
[29] = in vitro; conditions: African green monkey; remark: listed apart in the source
[30] = in vitro; conditions: dog
[31] = in vitro; conditions: dog; remark: listed apart in the source
[32] = in vitro; conditions: dog; remark: listed apart in the source
[33] = in vitro; conditions: African green monkey; remark: listed apart in the source
[34] = in vitro; conditions: African green monkey; remark: listed apart in the source
[35] = test system: adenovirus-5 (Ad5); experiment: organism not typed; conditions: A549
[36] = test system: poliovirus-1 (POV-1); experiment: organism not typed
[37] = test system: enterovirus-68 (EV-68); experiment: organism not typed; conditions: RD
[38] = test system: TCRV; experiment: microbe, parasite or virus in culture; conditions: Mammarenavirus tacaribeense, Vero C1008
[39] = test system: Rift Valley fever virus (RVFV); experiment: microbe, parasite or virus in culture; conditions: Vero 76
[40] = test system: SARS-CoV; experiment: microbe, parasite or virus in culture; conditions: Severe acute respiratory syndrome coronavirus, Vero 76
[41] = test system: SARS-CoV-2; experiment: microbe, parasite or virus in culture; conditions: Severe acute respiratory syndrome coronavirus 2, Vero 76
[42] = test system: dengue virus-2 (DV-2); experiment: microbe, parasite or virus in culture; conditions: Huh-7
[43] = test system: Japanese encephalitis virus (JEV); experiment: microbe, parasite or virus in culture; conditions: Vero 76
[44] = test system: Powassan virus (POWV); experiment: microbe, parasite or virus in culture; conditions: BHK-21
[45] = test system: West Nile virus (WNV); experiment: microbe, parasite or virus in culture; conditions: Vero 76
[46] = test system: Yellow fever virus (YFV); experiment: microbe, parasite or virus in culture; conditions: Huh-7
[47] = test system: Venezuelan equine encephalitis virus (VEEV); experiment: microbe, parasite or virus in culture; conditions: Vero 76
[48] = test system: Zika virus; experiment: microbe, parasite or virus in culture; conditions: Vero 76
[49] = test system: influenza A(H1N1); experiment: microbe, parasite or virus in culture; conditions: H1N1, MDCK
[50] = test system: influenza A(H5N1); experiment: microbe, parasite or virus in culture; conditions: H5N1, MDCK
[51] = test system: Influenza B; experiment: microbe, parasite or virus in culture; conditions: MDCK
[52] = test system: RSV; experiment: microbe, parasite or virus in culture; conditions: human respiratory syncytial virus, MA104
[53] = MRC-5 cytotoxicity assay (MTS) and visual cytotoxicity; conditions: human
[54] = test system: enterovirus-68 (EV-68, US/DY/14-18953); conditions: EV-68; SI = CC50/EC50
[55] = in vitro; conditions: human
[56] = test system: enterovirus-68 (EV-68, US/DY/14-18953); experiment: organism not typed; conditions: RD

With `Nc1nc2c(ncn2[C@@H]2OC(CO)=CC2O)c(=O)[nH]1` (some centres unmarked) [AB21651] the EC50 [1] was greater than 100 µM, the SI [2] was 0 and the SI [3] was 0. The SI [4] was 0, the SI [5] was 0 and the SI [6] was 0. It also gave an SI [7] of 0, an SI [8] of 0 and an SI [9] of 0. The SI [10] was 0, the SI [11] was 0 and the SI [12] was 0. The SI [13] was 0, the “antiviral activity against Influenza (H1N1) (in words)” value [14] was “exhibits antiviral activity” and the SI ([14]; H1N1) was greater than 4.5. The “antiviral activity against Influenza (H5N1) (in words)” value ([15]; Table 11) was “exhibits antiviral activity”, the SI ([15]; influenza A(H5N1), SI = CC50/EC50) was greater than 1.5 and the SI [16] was 0. The SI [17] was 0, the SI [18] was 0 and the SI [19] was 0. The “Peak area ratio, metabolite formed (AB21649 from AB23039, AB21651 from AB23040)” value (“Peak area ratio, metabolite formed” for short) ([20]; 0 min, 1 µM) was 6.17E−04, the “Peak area ratio, metabolite formed” value ([20]; 0 min, 1 μM) was 7.04E−04 and the “Peak area ratio, metabolite formed” value ([20]; 15 min, 1 μM) was 1.03E−03. For the same compound, the “Peak area ratio, metabolite formed” value ([20]; 60 min, 1 μM) was 1.50E−03, the “Peak area ratio, metabolite formed” value ([21]; 15 min) was 6.93E−04 and the “Peak area ratio, metabolite formed” value ([21]; 60 min) was 7.68E−04. For the same compound, the CC50 [22] was greater than 2000 µM, the CC50 [23] was greater than 2000 µM and the CC50 [24] was greater than 2000 µM. The CC50 [25] was greater than 2000 µM, the CC50 [26] was greater than 2000 µM and the CC50 [27] was greater than 2000 µM. The CC50 [28] was greater than 2000 µM, the CC50 [29] was greater than 2000 µM and the CC50 [30] was greater than 2000 µM. For the same compound, the CC50 [31] was greater than 2000 µM, the CC50 [32] was greater than 2000 µM and the CC50 [33] was greater than 2000 µM. The CC50 [34] was greater than 2000 µM, the EC50 [35] was greater than 2000 µM and the EC50 ([36]; Vero 76) was greater than 2000 µM. For the same compound, the EC50 [37] was greater than 1100 µM, the EC50 [38] was greater than 2000 µM and the EC50 [39] was greater than 2000 µM. It also gave an EC50 [40] greater than 2000 µM, an EC50 [41] greater than 2000 µM and an EC50 [42] greater than 2000 µM. It also gave an EC50 [43] greater than 2000 µM, an EC50 [44] greater than 2000 µM and an EC50 [45] greater than 2000 µM. It also gave an EC50 [46] greater than 2000 µM, an EC50 [47] greater than 2000 µM and an EC50 [48] greater than 2000 µM. The EC50 [49] was 440 µM, the EC50 [50] was 1300 µM and the EC50 [51] was greater than 2000 µM. The EC50 [52] was greater than 2000 µM and the CC50 at 6 days [53] was greater than 100 µM.
In the case of `CC(C)S(=O)(=O)n1c(N)nc2ccc(/C(=N/O)c3ccccc3)cc21` [Enviroxime], the SI [18] is reported as 350, the CC50 ([18]; Vero 76 cells without virus, positive control) is reported as 3.3 µg/mL (≈ 9.21 µM) and the “SI50 (SI)” value [54] is reported as 46. For the same compound, the CC50 [55] was 5.5 µg/mL (≈ 15.3 µM), the EC50 ([36]; Vero 76, read-out: EQ50) was 0.0095 µg/mL and the EC50 [56] was 0.12 µg/mL (≈ 0.335 µM).
